According to patent publication US20250263385A1 (SANOFI, priority 2022, published 2025):

Test system: Human erythropoietin (hEPO) levels in sera
Assay: Delivery of hEPO mRNA by intramuscular administration of lipid nanoparticles; serum hEPO by ELISA
Format: in vivo, Mouse (female BALB/cJ)
Conditions: single IM injection of 0.1 μg hEPO mRNA LNP in 30 μL into right gastrocnemius, female BALB/cJ mice, cationic lipids in formulation 1, MC3 in formulation 2; for hEPO 6 Hr (ng/mL) Mean: 6 hours post dose; for hEPO 24 Hr (ng/mL) Mean: 24 hours post dose
Experimental: Lipid nanoparticle formulations of Table 3 were prepared by Process A. All of the lipid nanoparticle formulations comprised hEPO mRNA and the different lipids (Cationic Lipid: DMG-PEG2000: Cholesterol: DOPE/DSPC) in the mol % ratios specified in Table 3.
The cationic lipids of the present invention were evaluated with lipid nanoparticle formulation 1. MC3 was evaluated with lipid nanoparticle formulation 2, which is a typical MC3 formulation.
In summary, lipid screening studies were conducted with female BALB/cJ mice 6-8 weeks of age. Mice were dosed with 0.1 μg in 30 μL of LNPs by a single intramuscular (IM) injection into the gastrocnemius leg muscle. Blood samples were taken 6 and 24 hours post injection and hEPO levels were measured in the blood serum of the mice using an ELISA assay according to the manufacture's protocol. WO2022/099003 A1 also describes an in vivo assay for intramuscular administration (e.g. on page 46, paragraph [00206]).
Treatment Regimen: On Day 1, animals from Groups 1-13 were dosed via intramuscular injection while under light isoflurane anesthesia according to the study design table above. Animals in Groups 1-13 were injected with EPO mRNA LNPs in the right leg only. Group 1 animals received MC3 control. The cationic lipid MC3 is the current gold standard for in vivo delivery of e.g. siRNA (see WO2010/144740).
Interim Sample Collections: Interim whole blood (^˜50 μL) was collected by tail snip or saphenous vein at 6 and 24 hours post dose administration (±5%). Blood samples were collected into serum separator tubes, allowed to clot at room temperature for at least 10 minutes, centrifuged at ambient temperature at minimum 1000 g for 10 minutes and the serum was extracted. All serum samples were stored at nominally −70° C. until analysis hEPO by the Testing Facility. The results of the EPO analysis were included in the Data Submission.
Terminal Blood Collections: Whole blood was collected via cardiac puncture into serum separator tube, allowed to clot at room temperature for at least 10 minutes, centrifuged at ambient temperature at minimum 1000 g for 10 minutes and the serum was extracted. Serum samples were stored at nominally −70° C. until analyzed for hEPO by the Test Facility.
ELISA Assay: Human erythropoietin (hEPO) levels in sera samples were determined by ELISA kit (R&D systems, Cat #DEP-00) according to the manufactory instruction and the results were included in the Data Submission. The “shaker” protocol was used. The serum samples were diluted between 1:40 and 1:100.

Question: Which results are given for `CCCCOC(=O)CCCCCCC(O)CN(CCCCC(=O)OCCN1CCN(CCSSCCCN(CC(O)CCCCC(=O)OC(C)C)CC(O)CCCCC(=O)OC(C)C)CC1)CC(O)CCCCCCC(=O)OCCCC` (centres unmarked) [Compound 78]?
Answer: hEPO 6 Hr (ng/mL) Mean: 7.05 ng/mL; hEPO 24 Hr (ng/mL) Mean: 3.30 ng/mL

Question: With `CCCCC/C=C\C/C=C\CCCCCCCCC(CCCCCCCC/C=C\C/C=C\CCCCC)OC(=O)CCCN(C)C` [MC3, reference compound] as the molecule, how does the “hEPO 6 Hr (ng/mL) Mean” value read?
Answer: Its value is 3.94 ng/mL.

Question: And the “hEPO 24 Hr (ng/mL) Mean” value?
Answer: The value was 2.44 ng/mL.

Question: Which “hEPO 6 Hr (ng/mL) Mean” value does the source give for `CCCCOC(=O)CCCCCCC(O)CN(CCCSSCCN1CCN(CCOC(=O)CCCCN(CC(O)CCCCCCC(=O)OCC(CC)CC)CC(O)CCCCCCC(=O)OCC(CC)CC)CC1)CC(O)CCCCCCC(=O)OCCCC` (centres unmarked) [Compound 6, Dibutyl 9,9′-((3-((2-(4-(2-((5-(bis(9-(2-ethylbutoxy)-2-hydroxy-9-oxononyl)amino)-pentanoyl)oxy)ethyl)piperazin-1-yl)ethyl)disulfaneyl)propyl)azanediyl)bis(8-hydroxynonanoate)] here?
Answer: Its value is 8.72 ng/mL.

Question: And the “hEPO 24 Hr (ng/mL) Mean” value?
Answer: The value was 8.90 ng/mL.

Question: Which results are given for `CCCCOC(=O)CCCCCCC(O)CN(CCCC(=O)OCCN1CCN(CCSSCCCN(CC(O)CCCCCCC(=O)OCC(CC)CC)CC(O)CCCCCCC(=O)OCC(CC)CC)CC1)CC(O)CCCCCCC(=O)OCCCC` (centres unmarked) [Compound 42, Dibutyl 9,9′-((5-(2-(4-(2-((4-(bis(9-(2-ethylbutoxy)-2-hydroxy-9-oxononyl)amino)propyl)disulfaneyl)ethyl)piperazin-1-yl)ethoxy)-4-oxobutyl)azanediyl)bis(8-hydroxynonanoate)]?
Answer: hEPO 6 Hr (ng/mL) Mean: 9.07 ng/mL; hEPO 24 Hr (ng/mL) Mean: 3.06 ng/mL

Question: With `CCC(CC)COC(=O)CCCCCCC(O)CN(CCCSSCCN1CCN(CCOC(=O)CCCN(CC(O)CCCC(=O)OC(CC)CC)CC(O)CCCC(=O)OC(CC)CC)CC1)CC(O)CCCCCCC(=O)OCC(CC)CC` (centres unmarked) [Compound 46, Bis(2-ethylbutyl) 9,9′-((3-((2-(4-(2-((4-(bis(2-hydroxy-6-oxo-6-(pentan-3-yloxy)hexyl)-amino)butanoyl)oxy)ethyl)piperazin-1-yl)ethyl)disulfaneyl)propyl)azanediyl)bis(8-hydroxynonanoate)] as the molecule, how does the “hEPO 6 Hr (ng/mL) Mean” value read?
Answer: The value was 12.38 ng/mL.

Question: What about the “hEPO 24 Hr (ng/mL) Mean” value of the same molecule?
Answer: Its value is 5.78 ng/mL.

Question: How did the “hEPO 6 Hr (ng/mL) Mean” value turn out when `CCC(CC)COC(=O)CCCCCCC(O)CN(CCCSSCCN1CCN(CCOC(=O)CCCN(CC(O)CCCCC(=O)OCCC(C)C)CC(O)CCCCC(=O)OCCC(C)C)CC1)CC(O)CCCCCCC(=O)OCC(CC)CC` (centres unmarked) [Compound 45, Bis(2-ethylbutyl) 9,9′-((3-((2-(4-(2-((4-(bis(2-hydroxy-7-(isopentyloxy)-7-oxoheptyl)amino)-butanoyl)oxy)ethyl)piperazin-1-yl)ethyl)disulfaneyl)propyl)azanediyl)bis(8-hydroxynonanoate)] was run?
Answer: The value was 8.33 ng/mL.

Question: And the “hEPO 24 Hr (ng/mL) Mean” value?
Answer: The value was 3.99 ng/mL.

Question: Which results are given for `CCC(CC)COC(=O)CCCCCCC(O)CN(CCCCC(=O)OCCN1CCN(CCSSCCCCN(CC(O)CCCCC(=O)OCC(CC)CC)CC(O)CCCCC(=O)OCC(CC)CC)CC1)CC(O)CCCCCCC(=O)OCC(CC)CC` (centres unmarked) [Compound 51, Bis(2-ethylbutyl) 9,9′-((5-(2-(4-(2-((4-(bis(7-(2-ethylbutoxy)-2-hydroxy-7-oxoheptyl)amino)-butyl)disulfaneyl)ethyl)piperazin-1-yl)ethoxy)-5-oxopentyl)azanediyl)bis(8-hydroxynonanoate)]?
Answer: hEPO 6 Hr (ng/mL) Mean: 16.39 ng/mL; hEPO 24 Hr (ng/mL) Mean: 9.03 ng/mL

Question: How did the “hEPO 6 Hr (ng/mL) Mean” value turn out when `CCC(CC)COC(=O)CCCCCCC(O)CN(CCCC(=O)OCCN1CCN(CCSSCCCN(CC(O)CCCCCCC(=O)OCCC(C)C)CC(O)CCCCCCC(=O)OCCC(C)C)CC1)CC(O)CCCCCCC(=O)OCC(CC)CC` (centres unmarked) [Compound 29, Bis(2-ethylbutyl) 9,9′-((4-(2-(4-(2-((3-(bis(2-hydroxy-9-(isopentyloxy)-9-oxononyl)-amino)propyl)disulfaneyl)ethyl)piperazin-1-yl)ethoxy)-4-oxobutyl)azanediyl)bis(8-hydroxynonanoate)] was run?
Answer: The value was 10.01 ng/mL.

Question: What about the “hEPO 24 Hr (ng/mL) Mean” value of the same molecule?
Answer: Its value is 4.93 ng/mL.

Question: For `CCC(CC)COC(=O)CCCCCCC(O)CN(CCCC(=O)OCCN1CCN(CCSSCCCCN(CC(O)CCCCC(=O)OCC(CC)CC)CC(O)CCCCC(=O)OCC(CC)CC)CC1)CC(O)CCCCCCC(=O)OCC(CC)CC` (centres unmarked) [Compound 50, Bis(2-ethylbutyl) 9,9′-((4-(2-(4-(2-((4-(bis(7-(2-ethylbutoxy)-2-hydroxy-7-oxoheptyl)amino)-butyl)disulfaneyl)ethyl)piperazin-1-yl)ethoxy)-4-oxobutyl)azanediyl)bis(8-hydroxynonanoate)], which “hEPO 6 Hr (ng/mL) Mean” value is on record?
Answer: The value was 14.94 ng/mL.

Question: And the “hEPO 24 Hr (ng/mL) Mean” value?
Answer: Its value is 8.87 ng/mL.

Question: Which results are given for `CCC(CC)COC(=O)CCCCC(O)CN(CCCSSCCN1CCN(CCOC(=O)CCCN(CC(O)CCCCC(=O)OCC(CC)CC)CC(O)CCCCC(=O)OCC(CC)CC)CC1)CC(O)CCCCC(=O)OCC(CC)CC` (centres unmarked) [Compound 92, Bis(2-ethylbutyl) 7,7′-((3-((2-(4-(2-((4-(bis(7-(2-ethylbutoxy)-2-hydroxy-7-oxoheptyl)amino)butanoyl)oxy)ethyl)piperazin-1-yl)ethyl)disulfaneyl)propyl)azanediyl)bis(6-hydroxyheptanoate)]?
Answer: hEPO 6 Hr (ng/mL) Mean: 13.11 ng/mL; hEPO 24 Hr (ng/mL) Mean: 5.75 ng/mL

Question: What does the source list for `CCCCOC(=O)CCCCCCC(O)CN(CCCCC(=O)OCCN1CCN(CCSSCCCCN(CC(O)CCCCCCC(=O)OCC(CC)CC)CC(O)CCCCCCC(=O)OCC(CC)CC)CC1)CC(O)CCCCCCC(=O)OCCCC` (centres unmarked) [Compound 53, Dibutyl 9,9′-((5-(2-(4-(2-((4-(bis(9-(2-ethylbutoxy)-2-hydroxy-9-oxononyl)amino)-butyl)disulfaneyl)ethyl)piperazin-1-yl)ethoxy)-5-oxopentyl)azanediyl)bis(8-hydroxynonanoate)]?
Answer: hEPO 6 Hr (ng/mL) Mean: 9.07 ng/mL; hEPO 24 Hr (ng/mL) Mean: 4.66 ng/mL

Question: `CCC(CC)COC(=O)CCCCCCC(O)CN(CCCCSSCCN1CCN(CCOC(=O)CCCN(CC(O)CCCCC(=O)OCC(CC)CC)CC(O)CCCCC(=O)OCC(CC)CC)CC1)CC(O)CCCCCCC(=O)OCC(CC)CC` (centres unmarked) [Compound 57, Bis(2-ethylbutyl) 9,9′-((4-((2-(4-(2-((4-(bis(7-(2-ethylbutoxy)-2-hydroxy-7-oxoheptyl)amino)butanoyl)oxy)ethyl)piperazin-1-yl)ethyl)disulfaneyl)butyl)azanediyl)bis(8-hydroxynonanoate)] was tested. Which “hEPO 6 Hr (ng/mL) Mean” value did it give?
Answer: Its value is 13.33 ng/mL.

Question: What about the “hEPO 24 Hr (ng/mL) Mean” value of the same molecule?
Answer: Its value is 8.19 ng/mL.

Question: Which “hEPO 6 Hr (ng/mL) Mean” value does the source give for `CCCCOC(=O)CCCCCCC(O)CN(CCCCSSCCN1CCN(CCOC(=O)CCCCN(CC(O)CCCCCCC(=O)OCC(CC)CC)CC(O)CCCCCCC(=O)OCC(CC)CC)CC1)CC(O)CCCCCCC(=O)OCCCC` (centres unmarked) [Compound 12] here?
Answer: The value was 8.06 ng/mL.

Question: And the “hEPO 24 Hr (ng/mL) Mean” value?
Answer: Its value is 4.86 ng/mL.
